15 molecules from patent US9150568B2, “Compositions and methods for modulating FXR” (NOVARTIS AG, priority 2010, dated 2015) can be followed below.

pEC50: −log10 of the molar value.

The target in the test is T1, human Farnesoid X Receptor (FXR) ligand binding domain (GST-FXR LBD) (Homo sapiens, UniProt Q96RI1).
T1 construct: purchased Invitrogen
T1 sequence (Q96RI1 193-472 isoform Q96RI1-2): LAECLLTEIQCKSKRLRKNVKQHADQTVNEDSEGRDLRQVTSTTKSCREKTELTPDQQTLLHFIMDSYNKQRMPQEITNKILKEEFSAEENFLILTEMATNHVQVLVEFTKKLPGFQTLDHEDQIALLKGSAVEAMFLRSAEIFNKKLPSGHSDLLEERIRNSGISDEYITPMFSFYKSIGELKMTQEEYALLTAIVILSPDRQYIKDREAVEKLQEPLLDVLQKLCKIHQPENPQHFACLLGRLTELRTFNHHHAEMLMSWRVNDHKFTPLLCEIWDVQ
The test is described as follows: Human GST-FXR LBD co-activator interaction assay (HTRF). The class given is biochemical. Conditions: GST-FXR LBD / biotin-SRC-1 peptide FRET; response relative to GW4064; read-out: FXR Co-activator interaction assay (EC50). The essentials: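 FRET (HTRF) read-out of ligand-induced binding between GST-FXR LBD and an SRC-1 peptide, detected with anti-GST cryptate and streptavidin-XL665 in buffer with 50 mM KF. Response % was normalized to DMSO and to the maximal GW4064 response. EC50 came from a four-parameter fit.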
In general terms: Time-resolved FRET reads energy transfer from a long-lived donor to a nearby acceptor.
A word on the pEC50: it is the EC50 on a negative log10 scale, so that one unit is a factor of ten. On to `Cc1cc(C(=O)O)nc(N2C3CC[C@H]2C[C@H](OCc2c(C4CCCCC4C(F)(F)F)noc2C2CC2)C3)n1` (stereo partly drawn) [Example 8-6B], for which the pEC50 was 7.00.
Consider `Cc1cc(C(=O)O)nc(N2C3CC[C@H]2CC(OCc2c(-c4cccc(F)c4F)noc2C2CC2)C3)n1` (stereo partly drawn) [Example 30-66], for which the pEC50 is 6.66.
In the case of `COc1cc(C(=O)O)cc2sc(N3C4CC[C@H]3CC(OCc3c(-c5ccccc5OC(F)(F)F)noc3C3CC3)C4)nc12` (stereo partly drawn) [Example 2-1B, 2-(3-((5-cyclopropyl-3-(2-(trifluoromethoxy)phenyl)isoxazol-4-yl)methoxy)-8-azabicyclo[3.2.1]octan-8-yl)-4-methoxybenzo[d]thiazole-6-carboxylic acid] it was 9.77; in that of `O=C(O)c1noc2cc(N3C4CC[C@H]3CC(OCc3c(-c5ccccc5OC(F)(F)F)noc3C3CC3)C4)ccc12` (stereo partly drawn) [Example 28-18], 8.09; in that of `O=C(O)c1ccc2nc(N3[C@@H]4CC[C@H]3C[C@@H](OCc3c(-c5ccc(F)cc5)noc3C3CC3)C4)sc2c1` [Example 30-6], 7.38.
Consider `Cc1cc(C(=O)O)nc(N2C3CC[C@H]2CC(OCc2c(-c4c(F)cccc4F)noc2C2CC2)C3)n1` (stereo partly drawn) [Example 22-18B], for which the pEC50 is 7.74.
In the case of `COC(=O)c1cc(Br)c2nc(N3C4CC[C@H]3CC(OCc3c(-c5ccccc5OC(F)(F)F)noc3C3CC3)C4)sc2c1` (stereo partly drawn) [Example 30-39] it was 7.44.
Take `O=C(O)c1ccc2nc(N3C4CC[C@H]3CC(OCc3c(-c5c(Cl)cccc5Cl)noc3C3CC3)C4)sc2c1` (stereo partly drawn) [Example 30-70]: the pEC50 was 9.70.
For `COC(=O)c1ccc(N2C3CC[C@H]2CC(OCc2c(-c4ccccc4OC(F)F)noc2C2CC2)C3)nn1` (stereo partly drawn) [Example 22-9A], the pEC50 was 5.99.
In the case of `O=C(NCCS(=O)(=O)O)c1cc(F)c2nc(N3C4CC[C@H]3C[C@H](OCc3c(-c5ccccc5C(F)(F)F)noc3C3CC3)C4)sc2c1` [Example 16-3], the pEC50 is 8.92.
In the case of `COC(=O)c1cnc(N2C3CC[C@H]2CC(OCc2c(-c4ccccc4OC(F)F)noc2C2CC2)C3)cc1Cl` (stereo partly drawn) [Example 22-6A] it was 7.25; in that of `COC(=O)c1cc(OC)c2nc(N3C4CC[C@H]3C[C@H](OCc3c(-c5c(F)cccc5F)noc3C3CC3)C4)sc2c1` [Example 6-6A], 7.85; in that of `O=C(O)c1ccnc(N2C3CC[C@H]2C[C@H](OCc2c(-c4ccccc4OC(F)(F)F)noc2C2CC2)C3)n1` [Example 19-6B], 8.15.
In the case of `Cc1cc(C(=O)O)nc(N2C3CC[C@H]2CC(OCc2c(-c4c(F)cccc4Cl)noc2C2CC2)C3)n1` (stereo partly drawn) [Example 30-19], the pEC50 was 7.64.
Consider `COC(=O)c1cc(C)nc(N2C3CC[C@H]2CC(OCc2c(-c4ccccc4C(F)(F)F)noc2C2CC2)C3)c1` (stereo partly drawn) [Example 21-1A], for which the pEC50 is 6.52.
